Laboratory results as given in article PMC9814792 (Communications Chemistry, 2022).

Assays:
[1] = system: HCT116 and HCT116/OxR cells; assay: Cellular GSH content (GSH/GSSG-Glo); assay type: cell-based, human; conditions: 24 h exposure, single agent
Procedure: GSH levels in HCT116 and HCT116/OxR cells (7.5 × 10^4 cells per well in 96-well plates, in triplicate), or in CT26 tumor tissues (25–50 mg/sample) were determined using the luminescence-based detection system GSH/GSSG-Glo^TM assay (Promega, Madison, WI) following the manufacturer’s recommendations. Quantifications are based on the comparison with a GSH standard curve delivered in the assay and normalized to the total protein content of the samples determined by the Micro BCA^TM protein assay kit (Thermo Scientific).

[2] = system: CT26 cells; assay: 72 h cell viability (MTT) assay; assay type: cell-based, murine; conditions: CT26, 72 h
Procedure: (§1) Cells were seeded (3–4 ×10^3 cells/well) in 96-well plates in 100 µL and after 24 h recovery treated with 100 µL of compounds at the indicated concentrations in triplicates. After 72 h drug exposure cell viability was determined by 3-(4,5-dimethylthiazol-2-yl)-2,5-diphenyltetrazolium bromide (MTT)-vitality assay (EZ4U, Biomedica, Vienna, Austria) following the manufacturer’s recommendations, as published. Absorbance was measured at 450 nm (at 620 nm as reference) using the multimode plate reader Tecan Infinite 200 Pro (Zurich, Switzerland). Cytotoxicity was expressed as IC50 values calculated from full dose-response curves using the 4 parameter nonlinear regression model of GraphPad Prism 8 software (La Jolla, CA, USA).

[3] = system: HCT116, HCT116/OxR, A2780, A2780/Cis cells; assay: 72 h cell viability (MTT) assay, all malignant cell models; assay type: cell-based, human
Procedure: as §1

[4] = biological target: T1, albumin (Bos taurus, UniProt P02769); assay: Albumin binding in fetal calf serum by SEC-ICP-MS; assay type: in vitro ADME; conditions: fetal calf serum 37 °C, 100 μM
T1 construct: tissue Sigma-Aldrich; host or cells: fetal calf serum
Procedure: Fetal calf serum was purchased from Sigma-Aldrich and buffered with 150 mM phosphate buffer (pH 7.4) to guarantee a stable pH. The platinum(IV) complexes were dissolved in 150 mM phosphate buffer (pH 7.4) to 1 mM and diluted 1:10 in serum to obtain a final concentration of 100 μM. The samples were then incubated in the autosampler at 37 °C for 24 h and analyzed at 0 h, 1 h, 4 h, and 24 h. Between each sample, a pure water blank was measured. For SEC-ICP-MS measurements, an Agilent 1260 Infinity system coupled to an Agilent 7800 ICP-MS equipped with a dynamic reaction cell was used. Oxygen (purity 5.5, Messer AustriaGmbH, Gumpoldskirchen, Austria) was used as reaction gas at 30% and 0.9 L/min flow.

[5] = Reduction kinetics with 10-fold excess of ascorbic acid by UHPLC; assay type: physicochemical; conditions: 10 mM AA; for UHPLC peak integral, reduction: method B
Procedure: For stability measurements BSO-OxOAc (1 mM) was dissolved in phosphate buffer (100 mM, pH 7.4). For reduction experiments BSO-OxOAc (2 mM) was dissolved in phosphate buffer (500 mM, pH 7.4). A 20 mM solution of AA in the same buffer was added in a 1:1 ratio. The samples were immediately measured on a Dionex UltiMate 3000 RS UHPLC system equipped with a Waters Acquity UPLC® BEH C18 column (3×50 mm, pore size 1.7 µm), and absorption detection at 230 nm with incubation at 20 °C (Gradients: Method A: 0.0−0.5 min: 5% eluent B in eluent A; 0.5–5.5 min: 5-95% eluent B; 5.5–8.0 min: 95 % eluent B (eluent A = 0.1% formic acid in water, eluent B = 0.1 % formic acid in acetonitrile), method B: 0.0 − 0.5 min: 5% eluent B in eluent A; 0.5–5.5 min: 5-95% eluent B; 5.5–7.1 min: 95 % eluent B (eluent A = 0.1% formic acid in water, eluent B = 0.1 % formic acid in methanol). Data points were taken every 30 min for 6 h and at 24 h and 24.5 h.

[6] = system: HCT116 and HCT116/OxR cells; assay: In vitro platinum cell uptake by ICP-MS; assay type: cell-based, human; conditions: 3 h exposure
Procedure: Cells were seeded at 1.5 ×10^5 cells/well in six-well plates in 1.5 mL and after 24 h recovery treated with 500 µL of compounds at the indicated concentrations in triplicates. After 3 h drug exposure, cells were detached, washed twice with phosphate-buffered saline (PBS), dried at RT for 15 min and lysed in 100 µL HNO3 (69%, Rotipuran Supra, Carl Roth, Karlsruhe, Germany) for 1 h at RT. The lysate was added to fresh tubes containing 200 µL ddH2O. ICP-MS measurements were performed with an Agilent 8800 ICP-MS/MS instrument (Agilent Technologies, Tokyo, Japan). The sample introduction system consisted of a MicroMist nebulizer (200 μL min^−1 nominal sample uptake) and a quartz double-pass spray chamber. The instrument was tuned on a daily basis in order to achieve maximum sensitivity, low oxide formation, and low doubly charged ratios. Platinum was monitored in no gas mode with an integration time of 0.3 s. The flow injection measurements were performed with a bioinert HPLC 1260 (Agilent Technologies, Waldbronn, Germany), which was directly connected to the nebulizer of the ICP-MS/MS instrument with a PEEK tubing. The following chromatographic conditions were used: injection volume: 10 µL; flow rate: 0.30 mL min^-1; isocratic elution; CH3COONH4 (50 mM, pH = 6.8) aqueous solution was employed as mobile phase. The data were recorded and evaluated with the Agilent MassHunter Chromatography software package, MassHunter 4.6., 2019.

[7] = system: CT26 allografts; assay: In vivo anticancer activity, CT26 allografts; set-up: species or system BALB/c mice
Procedure: Eight-to nine-week-old female BALB/c mice bred in-house (originally Janvier) were kept in pathogen-free conditions and controlled environment with 12 h light-dark cycle. CT26 cells (5 × 10^5 in 50 µL serum-free RPMI medium) were injected subcutaneously (s.c.) into the right flank of the animals. […] Tumor growth was evaluated by daily recording of tumor size by caliper measurement. […] The reasons were primarily either enhanced tumor size or ulceration. For drug distribution (digestion and ICP-MS measurement details see below), histological and GSH determination experiments, mice were treated twice during one week and sacrificed 24 h after the last drug dosing. The animal experiments were performed according to the regulations of the Ethics Committee for the Care and Use of Laboratory Animals at the Medical University Vienna (proposal number BMBWF-V/3b 2020-0.380.502).

T1 sequence (P02769 25-607): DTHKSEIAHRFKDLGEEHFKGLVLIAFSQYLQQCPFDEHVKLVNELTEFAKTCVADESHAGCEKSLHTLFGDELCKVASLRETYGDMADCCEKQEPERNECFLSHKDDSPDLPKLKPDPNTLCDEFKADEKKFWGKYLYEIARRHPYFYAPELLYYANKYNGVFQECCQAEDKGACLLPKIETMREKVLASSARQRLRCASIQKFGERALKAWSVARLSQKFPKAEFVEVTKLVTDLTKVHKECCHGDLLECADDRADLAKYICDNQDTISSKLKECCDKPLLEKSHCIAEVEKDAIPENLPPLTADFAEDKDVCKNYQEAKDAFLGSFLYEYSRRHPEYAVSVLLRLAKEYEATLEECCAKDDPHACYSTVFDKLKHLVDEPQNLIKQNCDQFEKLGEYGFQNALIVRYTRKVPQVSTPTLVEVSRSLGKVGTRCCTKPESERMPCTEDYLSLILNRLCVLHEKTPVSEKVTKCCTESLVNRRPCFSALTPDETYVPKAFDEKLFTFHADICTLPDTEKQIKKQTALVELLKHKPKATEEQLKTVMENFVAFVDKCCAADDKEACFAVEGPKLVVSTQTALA

CCCCS(=N)(=O)CCC(NC(=O)[O][Pt]1([O]C(C)=O)[O]C(=O)C(=O)[O]1)C(=O)O.NC1CCCCC1N (mixture of isomers) [BSO-OxOAc, (OC-6-34)-Acetato(((1 S)-3-(butylsulfonimidoyl)-1-carboxypropyl)carbamato)((1 R,2 R)-1,2-cyclohexanediamino)oxalatoplatinum(IV)]
impact on cellular GSH content [1]: moderately
higher IC50 value as compared to oxaliplatin [2]: > 58 fold
enhancement of IC50 values as compared to oxaliplatin [3]: 10- to 50 fold
bound to albumin fraction ([4]; t 0 h): 0%
free (low molecular weight fraction) ([4]; t 0 h): 100%
bound to albumin fraction ([4]; t 1 h): 0%
free (low molecular weight fraction) ([4]; t 1 h): 100%
bound to albumin fraction ([4]; t 4 h): 0%
free (low molecular weight fraction) ([4]; t 4 h): 100%
bound to albumin fraction ([4]; t 24 h): 0%
free (low molecular weight fraction) ([4]; t 24 h): 100%
t½ reduction kinetics ([5]; 1 mM complex, 500 mM phosphate buffer pH 7.4, 20 °C): ~ 51 h
UHPLC peak integral, reduction ([5]; t=0, 1 mM): 11.87 mAU
UHPLC peak integral, reduction ([5]; t=24 h, 1 mM): 9.1 mAU
intracellular accumulation in HCT116/OxR as compared to parental HCT116 [6]: only non-significantly altered
overall cellular platinum accumulation compared between compounds ([6]; both cell models): distinctly lower than of oxaliplatin
tumor doubling time extended ([7]; CT26 allografts, twice a week for two weeks, equimolar doses): 1.2 fold
maximal tumor growth inhibition ([7]; day 11, CT26 allografts, twice a week for two weeks, equimolar to 9 mg/kg oxaliplatin i.v.): 51.3%
tumor volumes as compared to solvent controls ([7]; first two weeks of treatment): significantly reduced tumor volumes
